What all share (assay): SelectScreen Kinase Profiling, single point inhibition and IC50 for off-target kinases
What all share (format): biochemical

For assay [1], the target named is off-target kinases (Homo sapiens, UniProt Q15303). Particulars: ERBB4 (HER4), ZLYTE, ATP Km app.
For assay [2], the target named is T1, off-target kinases (Homo sapiens, UniProt O15146).
T1 sequence (O15146 24-869): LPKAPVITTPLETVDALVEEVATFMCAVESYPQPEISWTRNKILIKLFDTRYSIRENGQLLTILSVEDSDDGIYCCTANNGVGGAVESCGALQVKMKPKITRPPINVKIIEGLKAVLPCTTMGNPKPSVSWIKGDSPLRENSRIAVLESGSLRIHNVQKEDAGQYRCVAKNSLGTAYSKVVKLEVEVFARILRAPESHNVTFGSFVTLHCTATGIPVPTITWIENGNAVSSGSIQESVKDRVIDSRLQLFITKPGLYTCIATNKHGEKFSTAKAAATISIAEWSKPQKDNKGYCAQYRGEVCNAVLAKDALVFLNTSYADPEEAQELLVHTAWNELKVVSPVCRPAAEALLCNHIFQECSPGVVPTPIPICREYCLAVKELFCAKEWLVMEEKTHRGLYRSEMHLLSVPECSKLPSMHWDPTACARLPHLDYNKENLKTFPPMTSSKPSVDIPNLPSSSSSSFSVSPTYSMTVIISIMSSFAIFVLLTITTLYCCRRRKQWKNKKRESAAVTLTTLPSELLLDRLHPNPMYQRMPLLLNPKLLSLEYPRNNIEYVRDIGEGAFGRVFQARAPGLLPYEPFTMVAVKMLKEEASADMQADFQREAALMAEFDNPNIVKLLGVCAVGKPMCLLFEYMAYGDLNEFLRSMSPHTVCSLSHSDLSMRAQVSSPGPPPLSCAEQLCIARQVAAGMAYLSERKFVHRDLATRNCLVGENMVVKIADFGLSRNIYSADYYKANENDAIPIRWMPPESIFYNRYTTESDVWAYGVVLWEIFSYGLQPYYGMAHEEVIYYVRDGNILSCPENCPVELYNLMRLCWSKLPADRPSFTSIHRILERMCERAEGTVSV
Particulars: MUSK, ZLYTE, ATP Km app.

Assay [3] addresses off-target kinases (Homo sapiens, UniProt Q15746). Particulars: MYLK (MLCK), LanthaScreen Binding.
Assay [4] concerns the target T2, off-target kinases (Homo sapiens, UniProt Q92630).
T2 sequence (Q92630 1-601): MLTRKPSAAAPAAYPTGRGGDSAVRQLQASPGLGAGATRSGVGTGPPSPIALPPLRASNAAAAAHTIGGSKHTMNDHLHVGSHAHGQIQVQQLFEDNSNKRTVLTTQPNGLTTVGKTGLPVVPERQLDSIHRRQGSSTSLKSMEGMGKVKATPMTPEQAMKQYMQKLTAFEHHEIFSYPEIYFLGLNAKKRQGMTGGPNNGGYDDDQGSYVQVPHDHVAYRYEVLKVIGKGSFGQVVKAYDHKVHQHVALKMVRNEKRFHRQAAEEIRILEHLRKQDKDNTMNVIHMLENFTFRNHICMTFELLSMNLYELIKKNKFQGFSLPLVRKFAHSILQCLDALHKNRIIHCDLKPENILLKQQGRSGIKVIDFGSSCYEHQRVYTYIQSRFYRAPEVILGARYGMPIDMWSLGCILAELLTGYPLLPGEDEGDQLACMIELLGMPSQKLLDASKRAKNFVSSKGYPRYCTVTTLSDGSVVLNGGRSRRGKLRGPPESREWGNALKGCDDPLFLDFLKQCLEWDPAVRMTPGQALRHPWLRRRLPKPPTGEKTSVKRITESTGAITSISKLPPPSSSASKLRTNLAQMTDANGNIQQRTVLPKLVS
To be noted: DYRK2, LanthaScreen Binding. (In general: Time-resolved FRET reads energy transfer from a long-lived donor to a nearby acceptor.)

Assay [5] has as its target off-target kinases (Homo sapiens, UniProt P07332). To be noted: FES (FPS), ZLYTE, ATP Km app.

Like-named read-outs stand apart in the source and are kept apart here.

off-target kinases (Homo sapiens, UniProt Q15746), sequence (Q15746 whole entry): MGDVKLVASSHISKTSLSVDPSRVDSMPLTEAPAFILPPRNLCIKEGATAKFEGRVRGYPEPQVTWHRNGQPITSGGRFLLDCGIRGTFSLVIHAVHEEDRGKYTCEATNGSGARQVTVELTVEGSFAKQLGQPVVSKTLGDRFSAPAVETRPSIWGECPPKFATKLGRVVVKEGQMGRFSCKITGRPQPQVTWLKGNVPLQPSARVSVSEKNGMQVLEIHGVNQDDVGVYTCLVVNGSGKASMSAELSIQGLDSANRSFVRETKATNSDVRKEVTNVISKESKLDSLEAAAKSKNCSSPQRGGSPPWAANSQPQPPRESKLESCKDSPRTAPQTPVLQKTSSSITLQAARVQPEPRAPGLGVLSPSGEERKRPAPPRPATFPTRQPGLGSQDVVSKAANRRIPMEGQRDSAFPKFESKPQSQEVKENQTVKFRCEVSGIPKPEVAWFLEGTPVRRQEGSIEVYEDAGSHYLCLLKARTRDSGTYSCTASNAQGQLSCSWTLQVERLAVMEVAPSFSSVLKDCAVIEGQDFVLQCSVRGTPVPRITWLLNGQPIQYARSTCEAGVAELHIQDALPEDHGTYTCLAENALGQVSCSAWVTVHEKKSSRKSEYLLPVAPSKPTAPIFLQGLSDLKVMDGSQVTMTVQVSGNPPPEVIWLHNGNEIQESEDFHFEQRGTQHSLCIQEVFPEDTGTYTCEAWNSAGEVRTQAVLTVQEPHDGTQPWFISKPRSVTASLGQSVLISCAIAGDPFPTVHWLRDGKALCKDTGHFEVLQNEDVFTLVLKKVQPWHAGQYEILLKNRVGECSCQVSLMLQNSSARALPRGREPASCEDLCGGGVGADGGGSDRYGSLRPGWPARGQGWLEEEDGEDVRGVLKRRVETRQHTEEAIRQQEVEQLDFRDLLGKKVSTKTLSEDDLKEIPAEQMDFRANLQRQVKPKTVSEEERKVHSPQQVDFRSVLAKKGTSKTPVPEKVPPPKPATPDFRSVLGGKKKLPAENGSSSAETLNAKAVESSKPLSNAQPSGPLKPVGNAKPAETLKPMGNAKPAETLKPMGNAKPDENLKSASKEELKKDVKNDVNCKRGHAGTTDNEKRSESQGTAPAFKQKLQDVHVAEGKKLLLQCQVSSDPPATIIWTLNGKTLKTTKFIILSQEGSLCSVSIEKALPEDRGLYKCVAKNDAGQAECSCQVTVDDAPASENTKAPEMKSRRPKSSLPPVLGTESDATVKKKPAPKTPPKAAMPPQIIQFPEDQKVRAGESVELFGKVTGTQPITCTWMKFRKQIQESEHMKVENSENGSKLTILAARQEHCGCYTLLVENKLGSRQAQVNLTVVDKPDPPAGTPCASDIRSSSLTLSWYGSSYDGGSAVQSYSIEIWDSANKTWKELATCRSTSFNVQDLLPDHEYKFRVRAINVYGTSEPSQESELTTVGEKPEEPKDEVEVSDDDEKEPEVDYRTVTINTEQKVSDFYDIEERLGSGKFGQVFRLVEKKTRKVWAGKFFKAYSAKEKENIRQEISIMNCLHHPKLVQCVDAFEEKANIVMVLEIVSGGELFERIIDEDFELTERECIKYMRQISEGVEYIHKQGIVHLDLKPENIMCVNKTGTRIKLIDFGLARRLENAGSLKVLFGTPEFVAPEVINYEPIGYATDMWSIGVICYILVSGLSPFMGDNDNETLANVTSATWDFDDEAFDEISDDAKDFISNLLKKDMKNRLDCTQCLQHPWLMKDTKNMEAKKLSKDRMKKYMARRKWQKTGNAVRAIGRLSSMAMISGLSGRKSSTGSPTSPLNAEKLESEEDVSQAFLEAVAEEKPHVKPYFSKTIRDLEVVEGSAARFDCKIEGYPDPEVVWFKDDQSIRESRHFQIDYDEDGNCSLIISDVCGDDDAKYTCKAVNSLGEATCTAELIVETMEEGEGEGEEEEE
off-target kinases (Homo sapiens, UniProt Q15303), sequence (Q15303 26-1308): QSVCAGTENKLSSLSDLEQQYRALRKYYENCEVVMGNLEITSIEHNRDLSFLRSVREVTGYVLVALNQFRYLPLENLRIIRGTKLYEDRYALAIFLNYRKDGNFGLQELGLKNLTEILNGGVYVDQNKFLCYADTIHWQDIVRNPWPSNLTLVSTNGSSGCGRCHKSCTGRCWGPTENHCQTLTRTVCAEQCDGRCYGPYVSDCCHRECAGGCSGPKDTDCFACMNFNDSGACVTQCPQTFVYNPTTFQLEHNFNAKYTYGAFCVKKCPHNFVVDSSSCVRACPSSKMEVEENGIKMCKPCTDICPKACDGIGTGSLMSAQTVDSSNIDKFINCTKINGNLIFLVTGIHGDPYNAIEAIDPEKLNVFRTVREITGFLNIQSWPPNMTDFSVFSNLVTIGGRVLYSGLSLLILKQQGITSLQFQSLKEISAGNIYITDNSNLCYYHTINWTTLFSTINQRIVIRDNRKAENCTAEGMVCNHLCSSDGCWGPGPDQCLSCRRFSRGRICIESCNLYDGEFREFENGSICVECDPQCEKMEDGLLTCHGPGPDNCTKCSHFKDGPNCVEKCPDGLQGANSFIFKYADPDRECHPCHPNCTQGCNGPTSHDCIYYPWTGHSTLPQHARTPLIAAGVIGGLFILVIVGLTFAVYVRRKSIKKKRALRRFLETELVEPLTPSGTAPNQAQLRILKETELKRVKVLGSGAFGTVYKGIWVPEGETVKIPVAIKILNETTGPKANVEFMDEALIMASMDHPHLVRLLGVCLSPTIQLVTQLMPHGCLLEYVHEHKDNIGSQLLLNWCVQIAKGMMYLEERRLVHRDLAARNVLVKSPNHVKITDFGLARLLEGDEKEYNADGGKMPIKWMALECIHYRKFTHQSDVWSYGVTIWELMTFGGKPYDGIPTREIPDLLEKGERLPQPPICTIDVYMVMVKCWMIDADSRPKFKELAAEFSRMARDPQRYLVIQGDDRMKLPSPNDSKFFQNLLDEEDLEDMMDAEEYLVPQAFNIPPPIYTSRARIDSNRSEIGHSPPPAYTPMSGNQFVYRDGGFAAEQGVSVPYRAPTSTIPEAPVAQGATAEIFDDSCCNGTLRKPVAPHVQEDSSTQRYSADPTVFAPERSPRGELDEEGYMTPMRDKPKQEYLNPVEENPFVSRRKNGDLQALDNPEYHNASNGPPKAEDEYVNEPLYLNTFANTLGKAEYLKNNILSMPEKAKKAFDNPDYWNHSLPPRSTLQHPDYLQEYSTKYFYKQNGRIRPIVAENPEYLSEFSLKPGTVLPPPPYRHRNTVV
off-target kinases (Homo sapiens, UniProt P07332), sequence (P07332 whole entry): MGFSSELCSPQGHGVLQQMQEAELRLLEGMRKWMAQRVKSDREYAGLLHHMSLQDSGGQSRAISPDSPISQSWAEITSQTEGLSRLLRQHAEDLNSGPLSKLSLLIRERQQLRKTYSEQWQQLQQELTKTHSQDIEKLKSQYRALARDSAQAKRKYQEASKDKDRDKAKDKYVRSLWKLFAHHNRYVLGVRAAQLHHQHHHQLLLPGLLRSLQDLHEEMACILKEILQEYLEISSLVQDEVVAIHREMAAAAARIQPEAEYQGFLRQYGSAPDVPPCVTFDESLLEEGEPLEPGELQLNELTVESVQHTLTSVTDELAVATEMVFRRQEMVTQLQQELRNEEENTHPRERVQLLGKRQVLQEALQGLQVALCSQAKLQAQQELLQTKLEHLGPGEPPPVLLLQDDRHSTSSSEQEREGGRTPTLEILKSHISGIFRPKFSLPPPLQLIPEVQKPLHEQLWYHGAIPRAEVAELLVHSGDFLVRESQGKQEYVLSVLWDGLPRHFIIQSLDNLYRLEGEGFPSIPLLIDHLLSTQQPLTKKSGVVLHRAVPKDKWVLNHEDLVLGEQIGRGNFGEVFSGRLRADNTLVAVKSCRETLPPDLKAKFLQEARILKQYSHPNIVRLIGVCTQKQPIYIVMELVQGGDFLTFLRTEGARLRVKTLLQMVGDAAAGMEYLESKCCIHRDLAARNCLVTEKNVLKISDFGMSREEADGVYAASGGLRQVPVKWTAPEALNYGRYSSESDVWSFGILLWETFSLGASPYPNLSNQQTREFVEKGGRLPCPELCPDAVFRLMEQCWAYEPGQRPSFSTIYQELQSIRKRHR

Consider `N#Cc1cc(-c2ncnc(Nc3ccc(N4CCN(C5COC5)CC4)cc3)n2)ccc1OC1CCOCC1` [Compound 1, 5-(4-((4-(4-(oxetan-3-yl)piperazin-1-yl)phenyl)amino)-1,3,5-triazin-2-yl)-2-((tetrahydro-2H-pyran-4-yl)oxy)benzonitrile], for which the inhibition (in general, the change of the read-out against control, counted positive when it falls) at off-target kinases [1] (read-out: % Inhibition 1) stood at 8%; on off-target kinases [1] (read-out: % Inhibition 2) it was 5%; at off-target kinases [1] (read-out: % Inhibition Avg) it was 6%; at off-target kinases [2] (read-out: % Inhibition 1), 15%; at off-target kinases [2] (read-out: % Inhibition 2), 8%; at off-target kinases [2] (read-out: % Inhibition Avg) it was 12%. For the same molecule, the inhibition is 5% at off-target kinases [3] (read-out: % Inhibition 1); 3% on off-target kinases [3] (read-out: % Inhibition 2); 4% on off-target kinases [3] (read-out: % Inhibition Avg); 54% on off-target kinases [4] (read-out: % Inhibition 1); 53% on off-target kinases [4] (read-out: % Inhibition 2); 54% on off-target kinases [4] (read-out: % Inhibition Avg). In addition, the inhibition at off-target kinases [5] (read-out: % Inhibition 1) is 9%; at off-target kinases [5] (read-out: % Inhibition 2), 7%; at off-target kinases [5] (read-out: % Inhibition Avg), 8%.

(Values after US11572590B2, “Methods for evaluating tumor cell spheroids using 3D microfluidic cell culture device” (Dana-Farber Cancer Institute, Inc., priority 2017, dated 2023).)
